Patent publication US20250041286A1, “CANCER TREATMENT USING KETOTIFEN IN COMBINATION WITH A CHECKPOINT INHIBITOR” (Materia Therapeutics Inc., priority 2021, published 2025)
Entries after “also recorded” stand apart in the source; their conditions may differ.

Key:
[1] = Mouse body, thymus and spleen weight at conclusion of study; assay type: in vivo; settings: highest dose (of 1, 5, 10, 25 mg/kg), i.p. once a day for 8 days
Description: Each treatment group of 4-7 mice received subtherapeutic doses of ketotifen (1, 5, 10 and 25 mg/kg) for a period of 8 days. Ketotifen fumarate salt was dissolved in sterilized normal saline (0.9% NaCl in ddH2O, w/v). Ketotifen 1 mg/kg, 5 mg/kg, 10 mg/kg, 25 mg/kg or equal volume of diluent (control group) was administered by intraperitoneal injection (i.p.) once a day for 8 days. Ketotifen treatment for MCA205 and K7M2wt tumor models started when the average tumor volume reached 60 mm^3 and 150 mm^3, respectively, and completed at 600 mm^3. At study endpoint, primary tumors were surgically excised and stored in 1×PBS at −80° C. until further processing. Planar dimensions (x, y) of tumor were monitored every 2-3 days using a digital caliper and tumor volume was estimated from the volume of an ellipsoid and assuming that the third dimension, z, is equal to sqrt(x y).
Following treatment, tumor growth (tumor volume and mass, see, FIGS. 2A and 2C for MCA205 tumors, and FIGS. 2B and 2D for K7M2wt tumors) was evaluated in the mice of each sarcoma group.

K7M2wt tumors [2] = assay: Collagen staining with Picrosirius red; assay type: in vivo, mouse; settings: 10 mg/kg ketotifen
Description: (§1) As tissue stiffness is caused in part by the degree of collagen expression by cancer associated fibroblasts (CAFs) and crosslinking, the intratumoral collagen levels were evaluated by histological staining using Picrosirius red.
(§2) Briefly, tumors were removed from four mice, washed twice in 1×PBS for 10 min, and incubated with 4% PFA overnight at 4° C. The fixative was aspirated, and samples were washed twice in 1×PBS for 10 min. Tissue samples were dehydrated in successive ethanol steps and xylene followed by paraffin embedding. Serial sections ([…]) of paraffin-embedded tissues were produced using the microtome (Accu-Cut SRM 200 Rotary Microtome, SAKURA), flattened out into water, and allowed to dry overnight at 37° C. Sections were then deparaffinized and rehydrated as routinely processed for histology. Following deparaffinization and rehydration, tissue sections were submerged in Picrosirius red stain for 1 hour at room temperature. Next, tissue sections were rinsed in two changes of acetic acid, followed by two changes of absolute ethanol and finally, mounted with DPX mountant for histology (Sigma). Collagen fibers were stained in red while the remaining tissue was pale yellow.

MCA205 tumors [3] = assay: Collagen staining with Picrosirius red; assay type: in vivo, mouse; settings: 10 mg/kg ketotifen
Description: as §1, §2

MCA205 tumors [4] = assay: Flow cytometry of tumor-infiltrating lymphocytes and myeloid cells; assay type: in vivo, mouse; settings: CD11b / Gr-1 flow cytometry
Description: On day 16 of the doxorubicin-anti-PD-L1 combination study (e.g., the study outlined in FIG. 8A), MCA205 tumors were harvested in 1×HBSS (Biosera), minced to fine fragments, and incubated with 1 mg/mL Collagenase D and 0.5 mg/ml DNase I (Roche) in a 37° C. shaker for 30 minutes. Enzymatic digestion was ceased by the addition of RPMI media containing 10% FBS and 1% antibiotic/antimycotic solution. The tissue homogenates were then filtered through 40 μm cell strainers. Red blood cells were removed by ACK Lysing buffer (A1049201, Gibco) and single cell suspensions were collected and used to a final concentration 1×10^6 cells per sample. Cells were then incubated with fixable viability dye (eBioscience, 1:1000) for 10 minutes on ice for gating of viable cells. Non-specific antibody binding was blocked following incubation with the rat anti-mouse CD16/CD32 mAb (BD Bioscience) for 20 minutes on ice. […]
Foxp3-AF488 (BD Bioscience) staining was performed following fixation and permeabilization process using the Foxp3/Transcription Factor Staining Buffer Set (00-5523-00, eBioscience). […] Flow cytometry data were obtained using BD FACSLyric flow cytometer and analyzed using BD FACSuite™ Software. […]

K7M2wt tumors [5] = assay: Immunofluorescence of T cells (CD3, CD8/Ki67, CD3/CD31) in tumor sections; assay type: in vivo, mouse; settings: Ki67/CD8 staining; concluding statement
Text: Immunofluorescence staining for Ki67 and CD8, performed as described above, confirmed the activation status of recruited CD8^+ T cells in osteosarcoma tumors (K7M2wt tumors) (FIGS. 9C-9D). K7M2wt tissue sections were then stained for pimonidazole adducts as a measure of hypoxia formation.
Immunofluorescence staining of CD3 and CD31 endothelial marker was used to assess the presence of T cells in the proximity of tumor vessel capillaries. PFA-fixed tissue cryosections of K7M2wt osteosarcoma tumors were incubated with primary rabbit anti-CD31 (Abcam, 1:50) and rat anti-CD3 (BioLegend, 1:50) overnight at 4° C. CD31 signal was detected with Alexa Fluor-488 anti-rabbit IgG (H+L) (Invitrogen, 1:400) and CD3 signal with Alexa Fluor-647 anti-rat IgG (H+L) (Invitrogen, 1:400) secondary antibodies. Cell nuclei were stained with DAPI. Tumor associated T cell to vessel content was determined by the overlapping CD31 and CD3 area fraction normalized to DAPI staining.

CN1CCC(=C2c3ccccc3CC(=O)c3sccc32)CC1 [ketotifen]
splenomegaly [1]: caused splenomegaly | collagen deposition (Picrosirius red) (K7M2wt tumors [2]): significant reduction | collagen deposition (Picrosirius red) (MCA205 tumors [3]): significant reduction | recruitment of immunosuppressive cell populations (MDSCs) (MCA205 tumors [4]): reducing the recruitment of immunosuppressive cell populations; also recorded: decreasing the polarization of immature myeloid cell population into MDSCs | fraction of CD8+ T cells proliferating (K7M2wt tumors [5]): double
